This is an account of results in patent EP4741380A1, “ISOXAZOLINE COMPOUND AND USE” (priority 2024, dated 2025).

SMILES strings stand for the structures. Read-outs that look alike come from different tables or passages of the source.

The term mortality denotes the share of the test organisms that died.

In this data set the test system is mites. Briefly: Mite killing efficacy test with an in vitro model. Conditions: 30 µM drug solution. On the procedure: Mite collection: Live mites were gently picked up from a cage box with cotton swabs or small tweezers, 17-26 live mites per group.
Drug treatment and detection method: 100 µL of a drug solution with a different concentration (drug solution prepared by 3% DMSO solution + 97% water and having a target final concentration of 30 µM) was aspirated with a pipette and added to a 24-well plate for each group, ensuring full contact between the drug and the mites. The mites were separately incubated at normal temperature for 5 min, transferred from each plate to another dry 24-well plate with the top sealed, and air-dried for about 1 h. Mite actions were observed, and the number of dead mites/the total number of mites was recorded. Then, the 24-well plate containing the mites was cultured at room temperature and relatively high humidity. The number of dead mites/the total number of mites was counted separately after 1 h, 2 h, 4 h, 6 h, 8 h, 22 h, and 24 h (time points after drug addition), and mite mortality rates were calculated. The project ended 24 h after drug addition.
At a corresponding time point, a mite mortality rate greater than or equal to 90% is denoted as "+++", a mite mortality rate less than 90% and greater than or equal to 50% is denoted as "++", and a mite mortality rate less than 50% is denoted as "+".

Setting [1] is: 4 h after drug addition, read-out: Mite Mortality Rate 4 h.
Setting [2] is: 24 h after drug addition, read-out: Mite Mortality Rate 24 h.

Regarding `Cc1cc(C2=NOC(c3cc(Cl)cc(Cl)c3)(C(F)(F)F)C2)ccc1C(=O)NCC(=O)NC1(C#N)CC1` (stereo not drawn) [Example 024, N-(2-((1-cyanocyclopropyl)amino)-2-oxoethyl)-4-(5-(3,5-dichlorophenyl)-5-(trifluoromethyl)-4,5-dihydroisoxazol-3-yl)-2-methylbenzamide], the mortality at 30 µM by setting is: under setting [1], below 50%; under setting [2], above 90%.
For `Cc1cc(C2=NOC(c3cc(Cl)cc(Cl)c3)(C(F)(F)F)C2)ccc1C(=O)NCC(=O)N1CC(F)(C(F)(F)F)C1` (stereo not drawn) [Example 025, 4-(5-(3,5-dichlorophenyl)-5-(trifluoromethyl)-4,5-dihydroisoxazol-3-yl)-N-(2-(3-fluoro-3-(trifluoromethyl)azetidin-1-yl)-2-oxoethyl)-2-methylbenzamide], in that order: below 50% and below 50%.
For `Cc1cc(C2=NOC(c3cc(Cl)cc(Cl)c3)(C(F)(F)F)C2)ccc1C(=O)NCC(=O)N1CC(F)(CF)C1` (stereo not drawn) [Example 026, 4-(5-(3,5-dichlorophenyl)-5-(trifluoromethyl)-4,5-dihydroisoxazol-3-yl)-N-(2-(3-fluoro-3-(fluoromethyl)azetidin-1-yl)-2-oxoethyl)-2-methylbenzamide], in that order: 50 to 90% and above 90%.
For `Cc1cc(C2=NOC(c3cc(F)cc(Cl)c3)(C(F)(F)F)C2)ccc1C(=O)NCC(=O)NC1(C(F)(F)F)CC1` (stereo not drawn) [Example 027, 4-(5-(3-chloro-5-fluorophenyl)-5-(trifluoromethyl)-4,5-dihydroisoxazol-3-yl)-2-methyl-N-(2-oxo-2-((1-(trifluoromethyl)cyclopropyl)amino)ethyl)benzamide], in that order: 50 to 90% and above 90%.
With `Cc1cc(C2=NOC(c3cc(F)c(Cl)c(Cl)c3)(C(F)(F)F)C2)ccc1C(=O)NCC(=O)NC1(C(F)(F)F)CC1` (stereo not drawn) [Example 028, 4-(5-(3,4-dichloro-5-fluorophenyl)-5-(trifluoromethyl)-4,5-dihydroisoxazol-3-yl)-2-methyl-N-(2-oxo-2-((1-(trifluoromethyl)cyclopropyl)amino)ethyl)benzamide], the mortality at 30 µM is 50 to 90% under setting [1] and above 90% under setting [2].
On to `Cc1cc(C2=NOC(c3cc(F)cc(C(F)(F)F)c3)(C(F)(F)F)C2)ccc1C(=O)NCC(=O)NC1(C(F)(F)F)CC1` (stereo not drawn) [Example 031, 4-(5-(3-fluoro-5-(trifluoromethyl)phenyl)-5-(trifluoromethyl)-4,5-dihydroisoxazol-3-yl)-2-methy 1-N-(2-oxo-2-((1-(trifluoromethyl)cyclopropyl)amino)ethyl)benzamide], for which, where the note is “4 h after drug addition”, the “Mite Mortality Rate 4 h” value is “+++ (a mite mortality rate greater than or equal to 90% is denoted as "+++")”. For the setting “24 h after drug addition”, the “Mite Mortality Rate 24 h” value is “+++ (a mite mortality rate greater than or equal to 90% is denoted as "+++")”.
In the case of `Cc1cc(Cl)cc(C2(C(F)(F)F)CC(c3ccc(C(=O)NCC(=O)NC4(C(F)(F)F)CC4)c(C)c3)=NO2)c1` (stereo not drawn) [Example 032, 4-(5-(3-chloro-5-methylphenyl)-5-(trifluoromethyl)-4,5-dihydroisoxazol-3-yl)-2-methyl-N-(2-oxo-2-((1-(trifluoromethyl)cyclopropyl)amino)ethyl)benzamide], the mortality at 30 µM runs as follows: under setting [1], below 50%; under setting [2], above 90%.
For `COc1cc(Cl)cc(C2(C(F)(F)F)CC(c3ccc(C(=O)NCC(=O)NC4(C(F)(F)F)CC4)c(C)c3)=NO2)c1` (stereo not drawn) [Example 033, 4-(5-(3-chloro-5-methoxyphenyl)-5-(trifluoromethyl)-4,5-dihydroisoxazol-3-yl)-2-methyl-N-(2-oxo-2-((1-(trifluoromethyl)cyclopropyl)amino)ethyl)benzamide], in that order: below 50% and above 90%.
For `Cc1cc(C2=NOC(c3cc(Cl)cc(Cl)c3)(C(F)(F)F)C2)ccc1C(=O)N(C)CC(=O)NC1(C(F)(F)F)CC1` (stereo not drawn) [Example 034, 4-(5-(3,5-dichlorophenyl)-5-(trifluoromethyl)-4,5-dihydroisoxazol-3-yl)-N,2-dimethyl-N-(2-oxo-2-((1-(trifluoromethyl)cyclopropyl)amino)ethyl)benzamide], in that order: below 50% and above 90%.
For `Cc1cc(C2=NOC(c3cc(Cl)cc(Cl)c3)(C(F)(F)F)C2)ccc1C(=O)N[C@H](C)C(=O)NC1(C(F)(F)F)CC1` (stereo partly drawn) [Example 035, 4-(5-(3,5-dichlorophenyl)-5-(trifluoromethyl)-4,5-dihydroisoxazol-3-yl)-2-methyl-N-((R)-1-oxo-1-((1-(trifluoromethyl)cyclopropyl)amino)propan-2-yl)benzamide], in that order: below 50% and 50 to 90%.
Turning to `Cc1cc(C2=NOC(c3cc(Cl)cc(Cl)c3)(C(F)(F)F)C2)ccc1C(=O)N[C@@H](C)C(=O)NC1(C(F)(F)F)CC1` (stereo partly drawn) [Example 036, 4-(5-(3,5-dichlorophenyl)-5-(trifluoromethyl)-4,5-dihydroisoxazol-3-yl)-2-methyl-N-((S)-1-oxo-1-((1-(trifluoromethyl)cyclopropyl)amino)propan-2-yl)benzamide], the mortality at 30 µM is below 50% under setting [1] and below 50% under setting [2].
With `Cc1cc(C2=NOC(c3cc(Cl)cc(OC(F)(F)F)c3)(C(F)(F)F)C2)ccc1C(=O)NCC(=O)NC1(C(F)(F)F)CC1` (stereo not drawn) [Example 037, 4-(5-(3-chloro-5-(trifluoromethoxy)phenyl)-5-(trifluoromethyl)-4,5-dihydroisoxazol-3-yl)-2-met hyl-N-(2-oxo-2-((1-(trifluoromethyl)cyclopropyl)amino)ethyl)benzamide], the mortality at 30 µM is, setting by setting: under setting [1], 50 to 90%; under setting [2], above 90%.
With `O=C(CNC(=O)c1ccc(C2=NOC(c3cc(Cl)cc(Cl)c3)(C(F)(F)F)C2)cc1)NC1(C(F)(F)F)CC1` (stereo not drawn) [Example 038, 4-(5-(3,5-dichlorophenyl)-5-(trifluoromethyl)-4,5-dihydroisoxazol-3-yl)-N-(2-oxo-2-((1-(trifluor omethyl)cyclopropyl)amino)ethyl)benzamide], the mortality at 30 µM under setting [1] was below 50% and the mortality at 30 µM under setting [2] is above 90%.
Turning to `Cc1cc(C2=NOC(c3cc(Cl)cc(Cl)c3)(C(F)(F)F)C2)cc(Cl)c1C(=O)NCC(=O)NC1CC1` (stereo not drawn) [Example 040, 2-chloro-N-(2-(cyclopropylamino)-2-oxoethyl)-4-(5-(3,5-dichlorophenyl)-5-(trifluoromethyl)-4,5-dihydroisoxazol-3-yl)-6-methylbenzamide], the mortality at 30 µM is below 50% under setting [1] and below 50% under setting [2].
On to `Cc1cc(C2=NOC(c3cc(Cl)cc(Cl)c3)(C(F)(F)F)C2)c(F)cc1C(=O)NCC(=O)NC1CC1` (stereo not drawn) [Example 041, N-(2-(cyclopropylamino)-2-oxoethyl)-4-(5-(3,5-dichlorophenyl)-5-(trifluoromethyl)-4,5-dihydroisoxazol-3-yl)-5-fluoro-2-methylbenzamide], for which the mortality at 30 µM reads like this: under setting [1], above 90%; under setting [2], above 90%.
Take `Cc1cc(C2=NOC(c3cc(Cl)cc(Cl)c3)(C(F)(F)F)C2)c(F)cc1C(=O)NCC(=O)NCC(F)(F)F` (stereo not drawn) [Example 042]: the “Mite Mortality Rate 4 h” value (4 h after drug addition) is “+++ (a mite mortality rate greater than or equal to 90% is denoted as "+++")”. Also, the “Mite Mortality Rate 24 h” value (24 h after drug addition) was “+++ (a mite mortality rate greater than or equal to 90% is denoted as "+++")”.
As to `Cc1c(C(=O)NCC(=O)NC2CC2)ccc(C2=NOC(c3cc(Cl)cc(Cl)c3)(C(F)(F)F)C2)c1F` (stereo not drawn) [Example 043, N-(2-(cyclopropylamino)-2-oxoethyl)-4-(5-(3,5-dichlorophenyl)-5-(trifluoromethyl)-4,5-dihydroisoxazol-3-yl)-3-fluoro-2-methylbenzamide], the mortality at 30 µM is below 50% under setting [1] and 50 to 90% under setting [2].
Take `Cc1c(C(=O)NCC(=O)NCC(F)(F)F)ccc(C2=NOC(c3cc(Cl)cc(Cl)c3)(C(F)(F)F)C2)c1F` (stereo not drawn) [Example 044]: where the note is “4 h after drug addition”, the “Mite Mortality Rate 4 h” value is “+++ (a mite mortality rate greater than or equal to 90% is denoted as "+++")”. In addition, the “Mite Mortality Rate 24 h” value (24 h after drug addition) is “+++ (a mite mortality rate greater than or equal to 90% is denoted as "+++")”.
